# Laboratory results published in patent publication US11697648B2, “Fused pyrimidine pyridinone compounds as JAK inhibitors” (THERAVANCE BIOPHARMA R&D IP, LLC, priority 2019, dated 2023).
# Target: JAK1 (Homo sapiens (Human), UniProt P23458)
# Experiment: Biochemical JAK1 kinase assay (LanthaScreen)
# Details: not given
# Summary of the method: (§1)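 GST-JAK + GFP-STAT1 peptide, HEPES pH 7.5/MgCl2/EGTA/Brij-35 buffer; cpd preincubation 1 h RT; ATP start, 1 h RT; stop with 10 mM EDTA + 2 nM Tb-anti-pSTAT1; TR-FRET 520/495. 4-parameter IC50 → pKi (Cheng-Prusoff).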
# Sequence of JAK1 (P23458 whole entry): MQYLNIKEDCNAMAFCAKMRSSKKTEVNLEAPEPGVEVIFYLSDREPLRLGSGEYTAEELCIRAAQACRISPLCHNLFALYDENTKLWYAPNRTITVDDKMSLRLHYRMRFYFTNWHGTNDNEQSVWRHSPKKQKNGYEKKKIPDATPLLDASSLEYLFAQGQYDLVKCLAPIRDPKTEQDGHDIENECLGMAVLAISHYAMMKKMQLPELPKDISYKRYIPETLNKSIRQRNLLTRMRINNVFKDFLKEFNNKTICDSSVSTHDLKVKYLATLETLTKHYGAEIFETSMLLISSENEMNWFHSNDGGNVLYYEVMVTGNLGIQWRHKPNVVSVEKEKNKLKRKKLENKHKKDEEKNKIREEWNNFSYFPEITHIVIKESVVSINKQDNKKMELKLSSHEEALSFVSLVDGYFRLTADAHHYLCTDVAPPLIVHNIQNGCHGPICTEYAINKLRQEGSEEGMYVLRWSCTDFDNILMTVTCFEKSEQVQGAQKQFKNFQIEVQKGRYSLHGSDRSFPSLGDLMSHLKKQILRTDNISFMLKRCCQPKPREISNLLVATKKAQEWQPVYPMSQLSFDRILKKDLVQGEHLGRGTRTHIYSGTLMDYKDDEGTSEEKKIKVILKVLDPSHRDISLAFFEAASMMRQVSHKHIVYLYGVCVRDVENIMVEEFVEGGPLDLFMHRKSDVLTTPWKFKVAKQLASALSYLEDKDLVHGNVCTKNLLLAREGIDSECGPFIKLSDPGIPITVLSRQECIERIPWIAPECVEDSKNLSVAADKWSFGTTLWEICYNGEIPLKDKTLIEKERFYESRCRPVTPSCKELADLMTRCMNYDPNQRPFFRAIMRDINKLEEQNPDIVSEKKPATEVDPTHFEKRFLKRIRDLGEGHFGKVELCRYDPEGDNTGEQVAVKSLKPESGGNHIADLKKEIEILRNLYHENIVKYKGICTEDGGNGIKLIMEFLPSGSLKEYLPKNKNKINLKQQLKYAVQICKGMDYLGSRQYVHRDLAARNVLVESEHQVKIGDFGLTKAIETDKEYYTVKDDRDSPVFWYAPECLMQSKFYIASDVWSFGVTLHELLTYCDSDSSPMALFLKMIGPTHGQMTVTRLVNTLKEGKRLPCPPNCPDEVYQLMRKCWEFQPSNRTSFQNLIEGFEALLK
row,SMILES,JAK 1 (pKi)
1,C=CC(=O)N1CC(CCn2c(=O)ccc3cnc(Nc4cccc(N5CCN(S(=O)(=O)CCOC)CC5)c4)nc32)C1 [Example 122],E (E represents a pKi value of 7 or below (Ki of 100 nM or above))
2,C=CC(=O)N1CC(CCn2c(=O)ccc3cnc(Nc4cccc(CN5CCN(S(=O)(=O)C6COC6)CC5)c4)nc32)C1 [Example 126],E (E represents a pKi value of 7 or below (Ki of 100 nM or above))
3,C=CC(=O)N1CC(CCn2c(=O)ccc3cnc(Nc4cccc(N5CCN(S(=O)(=O)CC#N)CC5)c4)nc32)C1 [Example 128],E (E represents a pKi value of 7 or below (Ki of 100 nM or above))
4,C=CC(=O)N1CC(CCn2c(=O)ccc3cnc(Nc4cccc(N5CCN(S(=O)(=O)C6COC6)CC5)c4)nc32)C1 [Example 129],E (E represents a pKi value of 7 or below (Ki of 100 nM or above))
5,C=CC(=O)N1CC(CCn2c(=O)ccc3cnc(Nc4cccc(CN5CCN(S(=O)(=O)CCOC)CC5)c4)nc32)C1 [Example 132],E (E represents a pKi value of 7 or below (Ki of 100 nM or above))
6,C=CC(=O)N1CCN(CCn2c(=O)ccc3cnc(Nc4ccc(N5CCN(C(=O)COC)CC5)cc4)nc32)CC1 [Example 144],E (E represents a pKi value of 7 or below (Ki of 100 nM or above))
7,C=CC(=O)N1CCN(CCn2c(=O)ccc3cnc(Nc4ccc(N5CCN(C(=O)N(C)C)CC5)cc4)nc32)CC1 [Example 146],E (E represents a pKi value of 7 or below (Ki of 100 nM or above))
8,C=CC(=O)N1CCN(CCn2c(=O)ccc3cnc(Nc4ccc(N5CCN(S(=O)(=O)CCOC)CC5)cc4)nc32)CC1 [Example 147],E (E represents a pKi value of 7 or below (Ki of 100 nM or above))

# Target: JAK2 (Homo sapiens (Human), UniProt O60674)
# Experiment: Biochemical JAK2 kinase assay (LanthaScreen)
# Details: not given
# Summary of the method: as §1
# Sequence of JAK2 (O60674 whole entry): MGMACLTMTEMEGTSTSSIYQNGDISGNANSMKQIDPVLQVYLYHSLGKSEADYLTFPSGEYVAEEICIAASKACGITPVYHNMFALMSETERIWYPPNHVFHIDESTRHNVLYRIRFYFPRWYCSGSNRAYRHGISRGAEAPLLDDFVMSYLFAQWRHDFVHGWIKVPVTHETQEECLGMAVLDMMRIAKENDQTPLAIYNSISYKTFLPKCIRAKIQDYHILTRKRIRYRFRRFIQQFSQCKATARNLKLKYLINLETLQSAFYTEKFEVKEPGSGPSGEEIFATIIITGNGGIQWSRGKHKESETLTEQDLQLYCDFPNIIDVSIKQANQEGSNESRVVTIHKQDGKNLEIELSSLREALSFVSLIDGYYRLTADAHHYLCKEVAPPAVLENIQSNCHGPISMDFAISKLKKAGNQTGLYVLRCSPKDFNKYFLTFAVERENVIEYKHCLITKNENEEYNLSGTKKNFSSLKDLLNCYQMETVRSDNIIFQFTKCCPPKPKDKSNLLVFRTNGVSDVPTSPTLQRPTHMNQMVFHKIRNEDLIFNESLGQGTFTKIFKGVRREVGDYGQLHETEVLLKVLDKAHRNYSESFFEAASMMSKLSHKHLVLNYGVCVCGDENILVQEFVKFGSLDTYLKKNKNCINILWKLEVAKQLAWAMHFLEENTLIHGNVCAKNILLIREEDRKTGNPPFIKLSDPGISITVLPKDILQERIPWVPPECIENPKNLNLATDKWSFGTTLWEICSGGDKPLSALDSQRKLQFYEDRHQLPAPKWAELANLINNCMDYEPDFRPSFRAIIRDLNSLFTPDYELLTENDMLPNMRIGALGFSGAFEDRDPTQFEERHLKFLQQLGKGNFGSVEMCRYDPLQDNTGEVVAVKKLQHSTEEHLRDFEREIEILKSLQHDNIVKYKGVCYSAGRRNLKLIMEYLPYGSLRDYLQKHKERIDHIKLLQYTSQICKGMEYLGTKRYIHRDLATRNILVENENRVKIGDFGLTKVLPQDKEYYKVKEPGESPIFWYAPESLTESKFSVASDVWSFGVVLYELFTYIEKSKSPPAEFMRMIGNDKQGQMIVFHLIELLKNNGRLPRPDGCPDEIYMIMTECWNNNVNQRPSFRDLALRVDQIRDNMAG
row,SMILES,JAK 2 (pKi)
1,C=CC(=O)N1CC(CCn2c(=O)ccc3cnc(Nc4cccc(N5CCN(S(=O)(=O)CCOC)CC5)c4)nc32)C1 [Example 122],E (E represents a pKi value of 7 or below (Ki of 100 nM or above))
2,C=CC(=O)N1CC(CCn2c(=O)ccc3cnc(Nc4cccc(CN5CCN(S(=O)(=O)C6COC6)CC5)c4)nc32)C1 [Example 126],E (E represents a pKi value of 7 or below (Ki of 100 nM or above))
3,C=CC(=O)N1CC(CCn2c(=O)ccc3cnc(Nc4cccc(N5CCN(S(=O)(=O)CC#N)CC5)c4)nc32)C1 [Example 128],E (E represents a pKi value of 7 or below (Ki of 100 nM or above))
4,C=CC(=O)N1CC(CCn2c(=O)ccc3cnc(Nc4cccc(N5CCN(S(=O)(=O)C6COC6)CC5)c4)nc32)C1 [Example 129],E (E represents a pKi value of 7 or below (Ki of 100 nM or above))
5,C=CC(=O)N1CC(CCn2c(=O)ccc3cnc(Nc4cccc(CN5CCN(S(=O)(=O)CCOC)CC5)c4)nc32)C1 [Example 132],E (E represents a pKi value of 7 or below (Ki of 100 nM or above))
6,C=CC(=O)N1CCN(CCn2c(=O)ccc3cnc(Nc4ccc(N5CCN(C(=O)COC)CC5)cc4)nc32)CC1 [Example 144],E (E represents a pKi value of 7 or below (Ki of 100 nM or above))
7,C=CC(=O)N1CCN(CCn2c(=O)ccc3cnc(Nc4ccc(N5CCN(C(=O)N(C)C)CC5)cc4)nc32)CC1 [Example 146],E (E represents a pKi value of 7 or below (Ki of 100 nM or above))
8,C=CC(=O)N1CCN(CCn2c(=O)ccc3cnc(Nc4ccc(N5CCN(S(=O)(=O)CCOC)CC5)cc4)nc32)CC1 [Example 147],E (E represents a pKi value of 7 or below (Ki of 100 nM or above))

# Target: JAK3 (Homo sapiens (Human), UniProt P52333)
# Experiment: Biochemical JAK3 kinase assay (LanthaScreen)
# Details: not given
# Summary of the method: as §1
# Sequence of JAK3 (P52333 whole entry): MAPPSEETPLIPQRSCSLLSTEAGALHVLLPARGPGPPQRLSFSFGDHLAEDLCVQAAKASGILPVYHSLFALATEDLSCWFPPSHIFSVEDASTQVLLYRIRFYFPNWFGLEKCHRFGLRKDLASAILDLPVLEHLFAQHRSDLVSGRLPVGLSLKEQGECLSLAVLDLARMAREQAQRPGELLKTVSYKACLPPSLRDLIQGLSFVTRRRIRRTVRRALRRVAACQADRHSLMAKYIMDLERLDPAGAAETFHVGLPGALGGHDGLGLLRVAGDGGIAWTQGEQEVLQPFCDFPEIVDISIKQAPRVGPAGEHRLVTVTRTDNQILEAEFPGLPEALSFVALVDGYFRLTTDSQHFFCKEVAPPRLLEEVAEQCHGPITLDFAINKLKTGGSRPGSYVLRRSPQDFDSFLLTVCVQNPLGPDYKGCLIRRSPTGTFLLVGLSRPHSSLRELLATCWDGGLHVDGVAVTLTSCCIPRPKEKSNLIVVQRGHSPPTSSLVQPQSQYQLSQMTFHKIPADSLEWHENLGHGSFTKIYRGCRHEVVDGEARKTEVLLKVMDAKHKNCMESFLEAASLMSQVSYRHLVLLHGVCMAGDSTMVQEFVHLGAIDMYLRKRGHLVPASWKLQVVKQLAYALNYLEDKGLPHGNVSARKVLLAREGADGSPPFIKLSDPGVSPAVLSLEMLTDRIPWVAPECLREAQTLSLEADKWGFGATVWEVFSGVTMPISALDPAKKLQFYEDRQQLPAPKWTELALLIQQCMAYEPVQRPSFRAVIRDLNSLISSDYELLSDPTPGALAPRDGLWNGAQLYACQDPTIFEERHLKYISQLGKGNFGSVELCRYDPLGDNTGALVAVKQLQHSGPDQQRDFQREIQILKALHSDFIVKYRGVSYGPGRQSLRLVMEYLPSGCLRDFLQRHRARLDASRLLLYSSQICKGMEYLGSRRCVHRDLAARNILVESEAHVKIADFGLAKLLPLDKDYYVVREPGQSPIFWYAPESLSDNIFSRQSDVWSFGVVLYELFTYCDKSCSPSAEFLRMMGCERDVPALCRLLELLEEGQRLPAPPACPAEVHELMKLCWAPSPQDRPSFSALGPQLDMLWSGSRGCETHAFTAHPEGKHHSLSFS
row,SMILES,JAK 3 (pKi)
1,C=CC(=O)N1CC(CCn2c(=O)ccc3cnc(Nc4cccc(N5CCN(S(=O)(=O)CCOC)CC5)c4)nc32)C1 [Example 122],B (B represents pKi value between 9 and 10 (Ki between 1 nM and 0.1 nM))
2,C=CC(=O)N1CC(CCn2c(=O)ccc3cnc(Nc4cccc(CN5CCN(S(=O)(=O)C6COC6)CC5)c4)nc32)C1 [Example 126],A (A represents a pKi value≥10 (Ki≤0.1 nM))
3,C=CC(=O)N1CC(CCn2c(=O)ccc3cnc(Nc4cccc(N5CCN(S(=O)(=O)CC#N)CC5)c4)nc32)C1 [Example 128],A (A represents a pKi value≥10 (Ki≤0.1 nM))
4,C=CC(=O)N1CC(CCn2c(=O)ccc3cnc(Nc4cccc(N5CCN(S(=O)(=O)C6COC6)CC5)c4)nc32)C1 [Example 129],A (A represents a pKi value≥10 (Ki≤0.1 nM))
5,C=CC(=O)N1CC(CCn2c(=O)ccc3cnc(Nc4cccc(CN5CCN(S(=O)(=O)CCOC)CC5)c4)nc32)C1 [Example 132],A (A represents a pKi value≥10 (Ki≤0.1 nM))
6,C=CC(=O)N1CCN(CCn2c(=O)ccc3cnc(Nc4ccc(N5CCN(C(=O)COC)CC5)cc4)nc32)CC1 [Example 144],A (A represents a pKi value≥10 (Ki≤0.1 nM))
7,C=CC(=O)N1CCN(CCn2c(=O)ccc3cnc(Nc4ccc(N5CCN(C(=O)N(C)C)CC5)cc4)nc32)CC1 [Example 146],B (B represents pKi value between 9 and 10 (Ki between 1 nM and 0.1 nM))
8,C=CC(=O)N1CCN(CCn2c(=O)ccc3cnc(Nc4ccc(N5CCN(S(=O)(=O)CCOC)CC5)cc4)nc32)CC1 [Example 147],B (B represents pKi value between 9 and 10 (Ki between 1 nM and 0.1 nM))

# Same assay, conditions: selectivity JAK3 over JAK1, difference of pKi
row,SMILES,JAK3 (pKi)-JAK1 (pKi)
1,C=CC(=O)N1CC(CCn2c(=O)ccc3cnc(Nc4cccc(N5CCN(S(=O)(=O)CCOC)CC5)c4)nc32)C1 [Example 122],A (A represents a value of 3 or above)
2,C=CC(=O)N1CC(CCn2c(=O)ccc3cnc(Nc4cccc(CN5CCN(S(=O)(=O)C6COC6)CC5)c4)nc32)C1 [Example 126],A (A represents a value of 3 or above)
3,C=CC(=O)N1CC(CCn2c(=O)ccc3cnc(Nc4cccc(N5CCN(S(=O)(=O)CC#N)CC5)c4)nc32)C1 [Example 128],A (A represents a value of 3 or above)
4,C=CC(=O)N1CC(CCn2c(=O)ccc3cnc(Nc4cccc(N5CCN(S(=O)(=O)C6COC6)CC5)c4)nc32)C1 [Example 129],A (A represents a value of 3 or above)
5,C=CC(=O)N1CC(CCn2c(=O)ccc3cnc(Nc4cccc(CN5CCN(S(=O)(=O)CCOC)CC5)c4)nc32)C1 [Example 132],A (A represents a value of 3 or above)
6,C=CC(=O)N1CCN(CCn2c(=O)ccc3cnc(Nc4ccc(N5CCN(C(=O)COC)CC5)cc4)nc32)CC1 [Example 144],A (A represents a value of 3 or above)
7,C=CC(=O)N1CCN(CCn2c(=O)ccc3cnc(Nc4ccc(N5CCN(C(=O)N(C)C)CC5)cc4)nc32)CC1 [Example 146],A (A represents a value of 3 or above)
8,C=CC(=O)N1CCN(CCn2c(=O)ccc3cnc(Nc4ccc(N5CCN(S(=O)(=O)CCOC)CC5)cc4)nc32)CC1 [Example 147],A (A represents a value of 3 or above)

# Target: Tyk2 (Homo sapiens (Human), UniProt P29597)
# Experiment: Biochemical Tyk2 kinase assay (LanthaScreen)
# Details: not given
# Summary of the method: as §1
# Sequence of Tyk2 (P29597 whole entry): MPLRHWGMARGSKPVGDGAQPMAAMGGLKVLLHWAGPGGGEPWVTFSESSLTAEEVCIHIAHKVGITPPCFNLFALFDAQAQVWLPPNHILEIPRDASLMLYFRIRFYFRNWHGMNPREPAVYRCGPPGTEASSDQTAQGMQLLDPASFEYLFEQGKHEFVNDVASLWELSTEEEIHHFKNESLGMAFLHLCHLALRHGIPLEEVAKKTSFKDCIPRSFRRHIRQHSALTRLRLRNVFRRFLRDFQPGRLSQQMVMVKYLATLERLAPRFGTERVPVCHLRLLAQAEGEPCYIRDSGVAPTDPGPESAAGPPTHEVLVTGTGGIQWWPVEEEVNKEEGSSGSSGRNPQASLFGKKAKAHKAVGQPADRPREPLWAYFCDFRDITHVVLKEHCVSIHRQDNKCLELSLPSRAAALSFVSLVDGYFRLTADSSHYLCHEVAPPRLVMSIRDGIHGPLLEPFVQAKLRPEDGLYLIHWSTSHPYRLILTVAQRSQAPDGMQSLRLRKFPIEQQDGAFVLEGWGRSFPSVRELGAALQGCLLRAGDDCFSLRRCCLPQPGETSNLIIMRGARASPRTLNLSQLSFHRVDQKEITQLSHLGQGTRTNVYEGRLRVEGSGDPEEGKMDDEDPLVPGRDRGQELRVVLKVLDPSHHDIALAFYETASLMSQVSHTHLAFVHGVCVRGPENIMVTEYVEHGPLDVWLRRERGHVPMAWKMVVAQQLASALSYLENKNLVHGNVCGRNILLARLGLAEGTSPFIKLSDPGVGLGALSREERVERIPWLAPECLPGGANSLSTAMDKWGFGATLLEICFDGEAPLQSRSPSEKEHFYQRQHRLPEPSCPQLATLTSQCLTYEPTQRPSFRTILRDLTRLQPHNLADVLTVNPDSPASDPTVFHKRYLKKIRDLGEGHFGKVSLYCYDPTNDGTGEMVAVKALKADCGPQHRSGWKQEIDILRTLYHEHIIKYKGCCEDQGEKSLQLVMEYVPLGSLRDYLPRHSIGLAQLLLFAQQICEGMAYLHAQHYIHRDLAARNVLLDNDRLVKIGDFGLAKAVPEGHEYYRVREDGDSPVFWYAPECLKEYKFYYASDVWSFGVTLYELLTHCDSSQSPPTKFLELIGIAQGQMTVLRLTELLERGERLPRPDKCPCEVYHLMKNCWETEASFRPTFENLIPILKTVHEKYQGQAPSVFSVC
row,SMILES,Tyk 2 (pKi)
1,C=CC(=O)N1CC(CCn2c(=O)ccc3cnc(Nc4cccc(N5CCN(S(=O)(=O)CCOC)CC5)c4)nc32)C1 [Example 122],E (E represents a pKi value of 7 or below (Ki of 100 nM or above))
2,C=CC(=O)N1CC(CCn2c(=O)ccc3cnc(Nc4cccc(CN5CCN(S(=O)(=O)C6COC6)CC5)c4)nc32)C1 [Example 126],E (E represents a pKi value of 7 or below (Ki of 100 nM or above))
3,C=CC(=O)N1CC(CCn2c(=O)ccc3cnc(Nc4cccc(N5CCN(S(=O)(=O)CC#N)CC5)c4)nc32)C1 [Example 128],E (E represents a pKi value of 7 or below (Ki of 100 nM or above))
4,C=CC(=O)N1CC(CCn2c(=O)ccc3cnc(Nc4cccc(N5CCN(S(=O)(=O)C6COC6)CC5)c4)nc32)C1 [Example 129],E (E represents a pKi value of 7 or below (Ki of 100 nM or above))
5,C=CC(=O)N1CC(CCn2c(=O)ccc3cnc(Nc4cccc(CN5CCN(S(=O)(=O)CCOC)CC5)c4)nc32)C1 [Example 132],E (E represents a pKi value of 7 or below (Ki of 100 nM or above))
6,C=CC(=O)N1CCN(CCn2c(=O)ccc3cnc(Nc4ccc(N5CCN(C(=O)COC)CC5)cc4)nc32)CC1 [Example 144],E (E represents a pKi value of 7 or below (Ki of 100 nM or above))
7,C=CC(=O)N1CCN(CCn2c(=O)ccc3cnc(Nc4ccc(N5CCN(C(=O)N(C)C)CC5)cc4)nc32)CC1 [Example 146],E (E represents a pKi value of 7 or below (Ki of 100 nM or above))
8,C=CC(=O)N1CCN(CCn2c(=O)ccc3cnc(Nc4ccc(N5CCN(S(=O)(=O)CCOC)CC5)cc4)nc32)CC1 [Example 147],E (E represents a pKi value of 7 or below (Ki of 100 nM or above))

# Test system: IL-2 stimulated STAT5 phosphorylation in Tall-1 human T cell line (JAK3)
# Experiment: Cellular JAK3 potency assay: inhibition of IL-2 stimulated pSTAT5 in Tall-1 T cells
# Type: cell-based
# Details: IL-2 stimulated pSTAT5, Tall-1 T cells
# Summary of the method: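 AlphaLISA SureFire Ultra measures STAT5 Tyr694/699 phosphorylation in lysed Tall-1 human T cells. Cells were exposed to compound for 1 h at 37 °C before a 30 min IL-2 challenge (300 ng/ml final). Values are pIC50 means with standard deviation from signal-versus-concentration curves.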
row,SMILES,Tall-1 (pIC50)
1,C=CC(=O)N1CC(CCn2c(=O)ccc3cnc(Nc4cccc(N5CCN(S(=O)(=O)CCOC)CC5)c4)nc32)C1 [Example 122],B (B represents a pC50 value between 6.7 (included) and 7.5 (IC50 between 200 nM and 32 nM))
2,C=CC(=O)N1CC(CCn2c(=O)ccc3cnc(Nc4cccc(CN5CCN(S(=O)(=O)C6COC6)CC5)c4)nc32)C1 [Example 126],B (B represents a pC50 value between 6.7 (included) and 7.5 (IC50 between 200 nM and 32 nM))
3,C=CC(=O)N1CC(CCn2c(=O)ccc3cnc(Nc4cccc(N5CCN(S(=O)(=O)CC#N)CC5)c4)nc32)C1 [Example 128],B (B represents a pC50 value between 6.7 (included) and 7.5 (IC50 between 200 nM and 32 nM))
4,C=CC(=O)N1CC(CCn2c(=O)ccc3cnc(Nc4cccc(N5CCN(S(=O)(=O)C6COC6)CC5)c4)nc32)C1 [Example 129],B (B represents a pC50 value between 6.7 (included) and 7.5 (IC50 between 200 nM and 32 nM))
5,C=CC(=O)N1CC(CCn2c(=O)ccc3cnc(Nc4cccc(CN5CCN(S(=O)(=O)CCOC)CC5)c4)nc32)C1 [Example 132],B (B represents a pC50 value between 6.7 (included) and 7.5 (IC50 between 200 nM and 32 nM))
6,C=CC(=O)N1CCN(CCn2c(=O)ccc3cnc(Nc4ccc(N5CCN(C(=O)COC)CC5)cc4)nc32)CC1 [Example 144],B (B represents a pC50 value between 6.7 (included) and 7.5 (IC50 between 200 nM and 32 nM))
7,C=CC(=O)N1CCN(CCn2c(=O)ccc3cnc(Nc4ccc(N5CCN(C(=O)N(C)C)CC5)cc4)nc32)CC1 [Example 146],B (B represents a pC50 value between 6.7 (included) and 7.5 (IC50 between 200 nM and 32 nM))
8,C=CC(=O)N1CCN(CCn2c(=O)ccc3cnc(Nc4ccc(N5CCN(S(=O)(=O)CCOC)CC5)cc4)nc32)CC1 [Example 147],C (C represents a pIC50 value between 6 and 6.7 (IC50 between 1 μM and 200 nM))
